Assay results: patent US20250262241A1, “METHODS TO IMPROVE STABILITY OF VIRUS TRANSDUCTION OF y8 T CELLS AND APPLICATIONS THEREOF” (UNICET BIOTECH CO. LLC., priority 2021, published 2025)
Values joined by “and” are separate entries in the source; they are usually repeats but may differ in a detail not shown here. Equal entries are not always repeated.

Legend:
[1] = test system: γδ2 T cells; experiment: Differentiation of γδ2 T cells cultured with/without BX795 (flow cytometry); type: cell-based, human
Protocol: (§1) Wash the cells once with PBS and then staining the cells with antibodies diluted in FACS buffer (PBS+1% FBS+2.5 mM EDTA) at 4° C. for 30 min. The common volume of incubated buffer was 50 μL for 2×10^cells.
(§2) After incubation, washed the cells with FACS buffer two times and then resuspended the cells in 200 ul FACS buffer and calculated the data by FACSCalibur (BD Biosciences). The antibodies used for γδ2 T cells were: APC anti-human CD3 (Biolegend, 300412), BV421 anti-human TCR Vδ2 (Biolegend, 331428).
On the other hand, the terminator γδ2 T cell percentage decreased from 2.595% to around 2%.

[2] = test system: γδ2 T cells; experiment: Exhausted marker expression of γδ2 T cells cultured with/without BX795; type: cell-based, human
Protocol: as §1, §2

[3] = test system: γδ2 T cells; experiment: CAR (B7H3) related lentivirus transduction of γδ2 T cells with small inhibitors: transduction rate; type: cell-based, human; conditions: 0.6 uM, day 10; control below 10%
Protocol: VSV-G pseudotyped lentiviral vectors were applied in this method. 1×10^7 293T cells were plated into a poly-D-lysine coated 100 mm dish. Next day the cells were transfected with 6 μg of pCDH-EF1-MCS-T2A-copGFP plasmid (Addgene, Plasmid #72263) or pCDH-EF1-CAR-T2A-copGFP plasmid modified from pCDH-EF1-MCS-T2A-copGFP, 4 μg of pspAx2 (Addgene, Plasmid #12260), 2 μg of pCMV-VSV-G (Addgene, Plasmid #8454) using 30 ug PEI transfection regents. After 8 hours of transfection, the cell culture medium was changed. The supernatant were collected 48 hours and 72 hours later. Concentrated the virus with Lenti-X™ Concentrator (Takara) and monitored the virus titers by transduction of 293T cells and stored the concentrated virus in −80° C. until further use.
(§3) For lentivirus transduction, 1×10^CFU lentivirus diluted in 200 ul PBS were added in a 24-well plate which were pre-coated with RetroNectin reagent (Takara) and centrifugated by 2,000 g for 2 hours at 32° C. After centrifugation, removed the supernatant and washed the plate with PBS three times slightly.
For the virus transduction of γδ2 T cells, seeded 1×10^PBMCs which were in vitro cultured after 48 hours in the γδ2 T cell culture medium mentioned above (Gibco serum free medium with rhIL-2 and ZOL). Added or not small inhibitors and mixed well and concentrated the cells by 800 g for 10 mins at 32° C. The plates were incubated at 37° C., 5% CO2. Discarded the small inhibitors regent by changing the cell culture medium 24 hours later.
Calculate the cell number by an automated cell counter and the transduction rate (GFP positive rate) was analyzed by flow cytometry every 2 to 3 days. The transduction rate was monitored in the gate of γδ2 or γδ1 T cells.

[4] = test system: γδ2 T cells; type: cell-based, human; conditions: 0.6 uM
Protocol: (§4) The plates were incubated at 37° C., 5% CO2.

[5] = test system: γδ1 T cells; experiment: CAR related lentivirus transduction of γδ1 T cells with small inhibitors; type: cell-based, human; conditions: 0.06 uM; control finally around 2%
Protocol: as §3, §4
To test the application of these small molecule on improving the transduction rate of δδ1 T cells. We evaluated the transduction rate of δδ1 T cells with/without different dosage of small molecules.

[6] = target: T1, PDK1 (Homo sapiens, UniProt O15530); conditions: cited from earlier work
T1 sequence (O15530 1-556): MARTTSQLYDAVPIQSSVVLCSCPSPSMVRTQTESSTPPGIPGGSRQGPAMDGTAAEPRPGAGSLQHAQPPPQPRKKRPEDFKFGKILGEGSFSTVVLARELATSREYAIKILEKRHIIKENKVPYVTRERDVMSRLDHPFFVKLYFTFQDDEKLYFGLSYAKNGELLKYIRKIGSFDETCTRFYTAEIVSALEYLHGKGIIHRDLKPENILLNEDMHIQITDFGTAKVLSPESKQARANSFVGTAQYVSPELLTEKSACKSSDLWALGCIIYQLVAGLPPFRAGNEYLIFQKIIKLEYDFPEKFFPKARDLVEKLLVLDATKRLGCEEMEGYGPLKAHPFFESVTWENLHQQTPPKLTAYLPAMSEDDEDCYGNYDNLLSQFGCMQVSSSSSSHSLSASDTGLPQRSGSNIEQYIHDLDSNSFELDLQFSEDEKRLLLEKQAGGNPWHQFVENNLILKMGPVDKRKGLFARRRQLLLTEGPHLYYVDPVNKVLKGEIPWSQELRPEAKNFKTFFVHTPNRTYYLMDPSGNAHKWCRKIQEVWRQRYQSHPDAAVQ

[7] = target: T2, TBK1 (Homo sapiens, UniProt Q9UHD2); conditions: cited from earlier work
T2 sequence (Q9UHD2 1-729): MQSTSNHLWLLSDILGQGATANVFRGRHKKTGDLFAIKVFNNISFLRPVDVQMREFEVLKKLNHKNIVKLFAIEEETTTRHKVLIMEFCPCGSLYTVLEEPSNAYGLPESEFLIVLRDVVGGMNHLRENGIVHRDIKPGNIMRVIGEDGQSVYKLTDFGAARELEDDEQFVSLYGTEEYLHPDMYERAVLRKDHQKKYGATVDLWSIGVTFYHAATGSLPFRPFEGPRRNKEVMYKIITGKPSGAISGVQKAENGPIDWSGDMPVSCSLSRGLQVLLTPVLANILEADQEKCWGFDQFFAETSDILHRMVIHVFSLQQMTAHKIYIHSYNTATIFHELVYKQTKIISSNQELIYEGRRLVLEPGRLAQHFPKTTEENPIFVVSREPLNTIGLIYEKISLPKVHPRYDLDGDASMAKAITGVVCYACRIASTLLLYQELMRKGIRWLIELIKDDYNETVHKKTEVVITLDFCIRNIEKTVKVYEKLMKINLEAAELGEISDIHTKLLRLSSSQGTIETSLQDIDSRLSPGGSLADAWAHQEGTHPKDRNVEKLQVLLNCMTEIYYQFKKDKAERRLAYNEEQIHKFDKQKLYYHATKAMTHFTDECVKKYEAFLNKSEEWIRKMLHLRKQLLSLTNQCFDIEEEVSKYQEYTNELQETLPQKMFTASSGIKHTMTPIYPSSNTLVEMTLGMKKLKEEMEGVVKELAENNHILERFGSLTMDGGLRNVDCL

**Q.** What does the source list for BX795?
**A.** changes in differentiation of γδ2 T cell subtypes ([1]; BX795 treatment vs control): No significant changes were found; central memory γδ2 T cells percentage rate ([1]; adding BX795, control 1.865%): 4.225%; terminator γδ2 T cell percentage ([1]; adding BX795, control 2.595%): around 2%; Central memory γδ2 cell (CD3+TCRVδ2+ CD27+CD45RA−), cell percentage of total lymphocytes ([1]; cultured with BX795): 3.88% and 4.57%; Effector γδ2 T cell (CD3+TCRVδ2+ CD27−CD45RA−), cell percentage of total lymphocytes ([1]; cultured with BX795): 81.23% and 80.00%; Terminator γδ2 T cell (CD3+TCRVδ2+ CD27−CD45RA+), cell percentage of total lymphocytes ([1]; cultured with BX795): 1.91% and 2.03%; naive γδ2 T cell (CD3+TCRVδ2+ CD27+CD45RA+), cell percentage of total lymphocytes ([1]; cultured with BX795): 0.25% and 0.10%; γδ2 CD226+T cell (CD3+TCRVδ2+CD226+), cell percentage of total lymphocytes ([1]; cultured with BX795): 87.25% and 86.59%; γδ2 NKG2D+T cell (CD3+TCRVδ2+NKG2D+), cell percentage of total lymphocytes ([1]; cultured with BX795): 87.17% and 86.50%; γδ2 T cell (CD3+TCRVδ2+), cell percentage of total lymphocytes ([1]; cultured with BX795): 87.25% and 86.68%; cell percentage of exhausted cell types (PD-1, LAG-3, TIGIT, TIM-3) ([2]; BX795 treatment vs control): improved the cell percentage of all the exhausted cell types slightly; γδ2 LAG-3+ T cell (CD3+TCRVδ2+LAG-3+), cell percentage of total lymphocytes ([2]; cultured with BX795): 85.58% and 85.77%; γδ2 PD-1+ T cell (CD3+TCRVδ2+PD-1+), cell percentage of total lymphocytes ([2]; cultured with BX795): 11.83% and 11.17%; γδ2 T cell (CD3+TCRVδ2+), cell percentage of total lymphocytes ([2]; cultured with BX795): 85.75% and 85.94%; γδ2 TIGIT+ T cell (CD3+TCRVδ2+TIGIT+), cell percentage of total lymphocytes ([2]; cultured with BX795): 23.24% and 26.98%; γδ2 TIM-3+ T cell (CD3+TCRVδ2+TIM-3+), cell percentage of total lymphocytes ([2]; cultured with BX795): 84.55% and 84.91%; transduction rate [3]: around 40%; cell growth of γδ2 T [4]: did not influence the cell growth; effect on transduction rate of γδ1 T cells [5]: could improve the transduction rate; IC50 [6]: 6 nM; IC50 [7]: 6 nM
